Tested on: pancreatic cancer PANG-1 cell line
Assay: Fluorescence microscopy study of etoposide-induced senescence and anti-AGE antibody staining
Format: cell-based
Details: 12.5 μM for 24 hours
Experimental: Cells from the pancreatic cancer PANG-1 cell line were treated with 12.5 μM etoposide, a chemotherapeutic agent, for 24 hours to induce senescence. Control cells were treated with dimethyl sulfoxide (DMSO) vehicle for 24 hours. The cells were then stained with a senescence β-galactosidase staining kit, an anti-AGE antibody conjugated to green fluorescent protein (GFP) or an anti-AGE antibody conjugated to GFP and 4′,6-diamidino-2-phenylindole (DAPI). GFP-stained cells appear green and DAPI-stained cells appear blue under fluorescence microscopy.
(§1) FIG. 2A illustrates the untreated cells after staining with the senescence β-galactosidase staining kit. FIG. 2B illustrates the untreated cells after staining with the anti-AGE antibody conjugated to GFP. FIG. 2C illustrates the untreated cells after staining with the anti-AGE antibody conjugated to GFP-DAPI. FIGS. 2B and 2C have been brightened to enhance contrast. The untreated cells appear relatively uniform in size and shape and are densely packed.
as §1, with “2D” for “2A”, “etoposide-treated” for “untreated”, “2E” for “2B”, “2F” for “2C”, “contrast.” for “contrast. The untreated cells appear relatively uniform in size and shape and are densely packed.”

COc1cc([C@@H]2c3cc4c(cc3[C@@H](O[C@@H]3O[C@@H]5CO[C@@H](C)O[C@H]5[C@H](O)[C@H]3O)[C@H]3COC(=O)[C@H]23)OCO4)cc(OC)c1O [etoposide]
Appearance of treated cells (senescence): irregular appearance, are larger in size and are loosely packed

Reference: patent publication US20220175916A1, “METHODS AND COMPOSITIONS FOR TREATING CHRONIC EFFECTS OF RADIATION AND CHEMICAL EXPOSURE” (priority 2018, published 2022)
